From US8039586B1, “Cerebral organic anion transporter and its gene” (J-Pharma Co., Ltd., priority 1998, dated 2011) come the findings set out here.

The target of data set [1] is T1, hOAT3 (Homo sapiens, UniProt Q8TCC7, D366H/K271E).
T1 sequence (Q8TCC7 1-542 K271E/D366H): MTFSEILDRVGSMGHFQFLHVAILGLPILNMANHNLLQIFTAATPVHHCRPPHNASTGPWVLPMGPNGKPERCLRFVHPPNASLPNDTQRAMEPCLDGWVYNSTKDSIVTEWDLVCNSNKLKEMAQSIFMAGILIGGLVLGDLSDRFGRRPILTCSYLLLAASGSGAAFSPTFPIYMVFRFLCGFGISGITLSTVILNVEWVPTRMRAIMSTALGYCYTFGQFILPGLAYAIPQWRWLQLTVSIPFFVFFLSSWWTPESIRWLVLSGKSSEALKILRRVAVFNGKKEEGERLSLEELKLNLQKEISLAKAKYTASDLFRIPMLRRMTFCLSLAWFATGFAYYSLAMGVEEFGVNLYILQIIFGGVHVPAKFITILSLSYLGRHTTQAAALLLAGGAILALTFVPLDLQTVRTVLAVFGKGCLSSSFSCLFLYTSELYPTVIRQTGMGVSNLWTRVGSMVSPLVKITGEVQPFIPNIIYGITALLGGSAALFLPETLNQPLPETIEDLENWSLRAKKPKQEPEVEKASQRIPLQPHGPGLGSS
The conditions noted are these: transport by hOAT3 in Xenopus oocyte. From the text:
Then, the hOAT3 transport of organic anions was examined at the Michaelis-Menten kinetic test.

A further data set addresses T2, rat OAT3 (rk1411) (Rattus norvegicus, UniProt Q9R1U7).
T2 construct: cRNA (RNA complementary to cDNA) was prepared in vitro from the plasmid carrying the clone (rk1411); expressed in transfected cells; host or cells: Xenopus oocytes injected with rk1411 cRNA
T2 sequence (Q9R1U7 1-536): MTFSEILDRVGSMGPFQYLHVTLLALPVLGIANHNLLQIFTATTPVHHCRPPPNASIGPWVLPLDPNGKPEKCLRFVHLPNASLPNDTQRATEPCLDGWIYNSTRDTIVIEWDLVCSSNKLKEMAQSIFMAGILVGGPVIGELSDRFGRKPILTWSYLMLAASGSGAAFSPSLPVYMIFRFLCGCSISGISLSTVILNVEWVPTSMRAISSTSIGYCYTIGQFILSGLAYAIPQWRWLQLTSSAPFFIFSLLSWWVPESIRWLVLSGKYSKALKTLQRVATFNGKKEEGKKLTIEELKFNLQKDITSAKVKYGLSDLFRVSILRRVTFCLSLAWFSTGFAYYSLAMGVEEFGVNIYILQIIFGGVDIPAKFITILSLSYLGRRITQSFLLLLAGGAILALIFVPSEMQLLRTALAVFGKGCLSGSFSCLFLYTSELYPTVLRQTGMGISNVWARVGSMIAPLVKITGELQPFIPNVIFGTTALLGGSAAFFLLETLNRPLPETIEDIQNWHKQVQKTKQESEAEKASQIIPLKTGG
In words: Michaelis-Menten dynamic test of organic anion transport with rk1411 in oocyte. It counts as cell-based. The conditions noted are these: transport by rk1411 (rat OAT3) in Xenopus oocyte, FIG. 2, read-out: Km. From the text:
The organic anion transport with rk1411 was subjected to the Michaelis-Menten dynamic test.

Data set [2] addresses T3, hOAT3 (Homo sapiens, UniProt Q8TCC7).
T3 construct: cRNA (RNA complementary to cDNA) was prepared in vitro from the plasmid comprising the hOAT3 recovered above; expressed in transfected cells; host or cells: Xenopus oocytes injected with hOAT3 cRNA
T3 sequence (Q8TCC7 1-542 K271E/D366H): T1 sequence (Q8TCC7 1-542 K271E/D366H)
In words: Uptake of radiolabeled compounds by Xenopus oocyte injected with hOAT3 cRNA. It counts as cell-based. The conditions noted are these: substrate 50 nM; one hour; versus control oocyte. Here is the method: By using T7 RNA polymerase, cRNA (RNA complementary to cDNA) was prepared in vitro from the plasmid comprising the hOAT3 recovered above by the method by Sekine, et al. (see Sekine, T., et al. J. Biol. Chem., Vol. 272, pp. 18526-9, 1997).
According to the already reported method of Sekine, et al. (Sekine, T., et al. J. Biol. Chem., Vol. 272, pp. 18526-9, 1997), the resulting hOAT3 cRNA was injected in the Xenopus oocyte; the oocyte was subjected to an uptake test with various radiolabeled organic anions and organic cations. The control oocyte cell (oocyte cell with no injection of hOAT3 cRNA) and the oocyte cell injected with hOAT3 cRNA were cultured in a buffer containing the following radiolabels for one hour, to assay the uptake of the radiolabels into the oocytes.
In each figure, open column expresses the case of the control oocyte used; and closed column expresses the case of the oocyte injected with hOAT3 cRNA.

The target in data set [3] is T1, hOAT3. As to the kind of experiment: Inhibition of 3H-estrone sulfate uptake in oocyte injected with hOAT3 cRNA. The conditions noted are these: 50 nM 3H-estrone sulfate; non-radiolabeled compound at 500 μM or the concentration shown in FIG. 19; one hour. Set-up: cRNA (RNA complementary to cDNA) was prepared in vitro from the plasmid comprising the hOAT3 recovered above; expressed in transfected cells; host or cells: Xenopus oocytes injected with hOAT3 cRNA. It counts as cell-based.

Substrate in data set [4]: CN(Cc1cnc2nc(N)nc(N)c2n1)c1ccc(C(=O)N[C@@H](CCC(=O)O)C(=O)O)cc1
As to the kind of experiment: cells, lysate or membranes. The conditions noted are these: other: transport by hOAT3 in Xenopus oocyte.

A word on the Km: it is the concentration of substrate that gives half-maximal velocity.

Read-outs that look alike come from different tables or passages of the source.

On to estrone sulfate, for which the Michaelis constant (Km) at hOAT3 [1] was determined as 3.08 µM; on rat OAT3 (rk1411) (listed as Estrone sulfate), 2340 ± 200 nM; on rat OAT3 (rk1411), 2300 nM. The “uptake of radiolabeled compound by oocyte with hOAT3 expression” value at hOAT3 [2] was “takes up”. Moreover, at hOAT3 [3], the “inhibition of the transport of 3H-estrone sulfate with hOAT3” value was “significantly inhibited”.

B1: hOAT3 (Homo sapiens; D366H/K271E) (protein)
chain: T1 sequence (Q8TCC7 1-542 K271E/D366H)
As for B1, the Km in data set [4] worked out at 2.22 µM.
